From patent publication US11272841B2, “Indicator fluids, systems, and methods for assessing movement of substances within, to or from a cerebrospinal fluid, brain or spinal cord compartment of a cranio-spinal cavity of a human” (BRAINWIDESOLUTIONS AS, priority 2017, dated 2022)
Several values for one entry are separate records, joined by “and”; a condition that tells them apart may be missing. Equal values may be shown once. Marks after values point to notes of the source that are not given here.

Test: Repeated standardized T1-weighted MRI: signal units (SU) in ROIs of CSF, venous space and brain tissue after intrathecal gadobutrol, iNPH versus reference patients (Tables 2-4, FIG. 14b, 16);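 for Max Increase in SU of T1 signal, numerical change: Gadobutrol 0.5 mL of 1.0 mmol/mL given intrathecally into CSF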;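 for Max Increase in SU of T1 signal, percentage change: Gadobutrol 0.5 mL of 1.0 mmol/mL given intrathecally into CSF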
Format: in vivo, human
Details: for Max Increase in SU of T1 signal, numerical change / Max Increase in SU of T1 signal, percentage change: one patient per row; for Average indication signal within brain tissue ROI: one individual, FIG. 14b
Description: The different features of Aspect 2 are based on novel in-vivo observations in humans. […] In the following paragraphs, these novel observations in humans are commented on in more detail. In these studies, the MRI contrast agent gadobutrol served as indicator fluid and MRI SUs were indication signals. MRI T1 weighted signal units were measured when gadobutrol was present within CSF after having been administered to the CSF compartment, and were compared with MR images having identical sequence parameter settings and with no gadobutrol present in CSF. […] With a MW of 605 Da, gadobutrol is a rather large molecule in comparison to the MW of water (H2O) molecule, which is 18 Da. Clearance of gadobutrol is then indicative of clearance of other substances with similar properties.
We explored both movement of the contrast agent within, to, and from the cranio-spinal cavity, including CSF, brain and spinal cord compartment, and from the cranio-spinal cavity to extra-cranial LNs. With gadobutrol present within CSF, blood level concentrations of contrast agents were determined at various time point. The repeated MRI acquisitions made it possible to create clearance curves for one or more pixels, defined by ROIs. ROIs were placed within CSF compartments, brain and spinal cord tissue compartments, and extracranial LN tissue compartments. By means of MRI, we could create graphic curves illustrating clearance of substances (clearance illustrating curves) for defined ROIs built up of a defied number of pixels for each individual. For details of said clearance curves, see FIG. 7. The establishment of clearance curves was dependent on repeated MRI acquisitions over a long period.
Using MRI SUs, we created clearance illustrating curves, see FIG. 7, for the individual patients as well as for groups of individuals. Tables 2-4 illustrate various examples of parameter values of the clearance illustrating curves.
Table 2, as discussed with FIG. 2, illustrates how maximum increase in SUs varies between individuals and patient groups. Tables 3 and 4 compare such clearance curve parameters from two patient groups, namely iNPH and reference (i.e. control) patients, illustrating inter-individual differences and differences between patient groups. These patient groups represent no limitation of the invention as it may be used in various patient groups such as Alzheimer's and dementia in general, brain tumor (e.g. astrocytoma), multiple sclerosis and inflammatory brain disease, stroke (brain infarction or bleeds), sleep disturbances, neurodegenerative disease, CSF circulation disorders, traumatic brain injury, neurometabolic diseases, glaucoma, chronic headache and migraine, and in assessment of ageing in general.
Even though perfect match of ROIs of repeated images may be difficult to obtain, the second aspect of the invention is facilitated by that image acquisition parameters at repeated MRI acquisitions are kept fixed and thus standardized. […] Further, to make best possible alignments of pixels, methods for alignment of repeated MRI acquisitions need to be implemented. Methods for alignment of repeated MRI images belong to prior art. Aids to improve alignment may incorporate landmark locations such as the cranial vault, pineal gland, and ventricular system.
Each image acquisition lasted 6 minutes and 29 seconds.

[1] = CSF space: Lateral Ventricle, iNPH
[2] = CSF space: Precentral sulcus, Reference
[3] = CSF space: Precentral sulcus, iNPH
[4] = CSF space: Sylvian fissure, Reference
[5] = CSF space: Sylvian fissure, iNPH
[6] = Central venous space: Sagittal sinus/confluence, Reference
[7] = Central venous space: Sagittal sinus/confluence, iNPH
[8] = Inferior frontal gyrus (IFG), REF
[9] = Inferior frontal gyrus (IFG), iNPH

O=C([O-])CN1CCN(CC(=O)[O-])CCN([C@H](CO)[C@H](O)CO)CCN(CC(=O)[O-])CC1.[Gd+3] (racemic) [gadobutrol]
Clearance coefficient (SU/min) [1]: −0.05 ± 0.04 SU/min | Clearance time [1]: 1115.1 ± 46.3 min | Enhancement coefficient (SU/min) [1]: 0.41 SU/min | Max increase (SU) [1]: 168.5 ± 99.8^b SU | Max reduction (SU) [1]: −57.3 ± 48.9 SU | Time to peak [1]: 843.4 ± 560.2 min | Clearance coefficient (SU/min) (CSF space: Pons, Reference): −0.25 ± 0.08 SU/min | Clearance time (CSF space: Pons, Reference): 1261.5 ± 137.0 min | Enhancement coefficient (SU/min) (CSF space: Pons, Reference): 10.8 SU/min | Max reduction (SU) (CSF space: Pons, Reference): −313.3 ± 105.3 SU | Time to peak (CSF space: Pons, Reference): 159.8 ± 148.9 min | Clearance coefficient (SU/min) (CSF space: Pons, iNPH): −0.15 ± 0.08^b SU/min | Clearance time (CSF space: Pons, iNPH): 1207.9 ± 114.8 min | Enhancement coefficient (SU/min) (CSF space: Pons, iNPH): 2.4 SU/min | Max reduction (SU) (CSF space: Pons, iNPH): −177.9 ± 95.5^b SU | Time to peak (CSF space: Pons, iNPH): 230.9 ± 98.4 min | Enhancement coefficient (SU/min) [2]: 0.29 SU/min | Max increase (SU) [2]: 87.8 ± 99.3 SU | Time to peak [2]: 475.0 ± 601.9 min | Enhancement coefficient (SU/min) [3]: 0.10 SU/min | Max increase (SU) [3]: 131.1 ± 94.1 SU | Time to peak (min) [3]: 1254.7 ± 483.8^b min | Clearance coefficient (SU/min) [4]: −0.12 ± 0.06 SU/min | Clearance time [4]: 1162.6 ± 78.1 min | Enhancement coefficient (SU/min) [4]: 0.9 SU/min | Max increase (SU) [4]: 204.2 ± 104.4 SU | Max reduction (SU) [4]: −133.0 ± 68.4 SU | Time to peak [4]: 258.6 ± 114.8 min | Clearance coefficient (SU/min) [5]: −0.06 ± 0.05^a SU/min | Clearance time [5]: 1123.7 ± 41.1 min | Enhancement coefficient (SU/min) [5]: 0.57 SU/min | Max increase (SU) [5]: 226.2 ± 100.2 SU | Max reduction (SU) [5]: −68.0 ± 51.2^a SU | Time to peak (min) [5]: 689.0 ± 536.3^a min | Clearance coefficient (SU/min) [6]: −0.008 ± 0.003 SU/min | Clearance time [6]: 1247.3 ± 175.9 min | Enhancement coefficient (SU/min) [6]: 0.41 SU/min | Max increase (SU) [6]: 7.4 ± 9.6 SU | Max reduction (SU) [6]: −9.5 ± 3.9 SU | Time to peak [6]: 524.4 ± 591.3 min | Clearance coefficient (SU/min) [7]: −0.01 ± 0.006 SU/min | Clearance time [7]: 1287.4 ± 150.9 min | Enhancement coefficient (SU/min) [7]: 0.16 SU/min | Max increase (SU) [7]: 8.1 ± 8.0 SU | Max reduction (SU) [7]: −12.1 ± 6.7 SU | Time to peak [7]: 350.2 ± 457.3 min | Max Increase in SU of T1 signal, numerical change (Frontal horn, REF): 23 SU and 7 (7%) SU and 4 SU and 4 (4%) SU and 3 (3%) SU and 9 SU and 17 SU | Max Increase in SU of T1 signal, percentage change (Frontal horn, REF): 37% and 7 (7%) and 3% and 4 (4%) and 3 (3%) and 8% and 21% | Max Increase in SU of T1 signal, numerical change (Frontal horn, iNPH): 13 SU and 103 SU and 35 SU and 76 SU and 92 SU and 50 SU and 2 (2%) SU and 49 SU and 53 SU and 42 SU and 8 SU and 19 SU and 21 SU | Max Increase in SU of T1 signal, percentage change (Frontal horn, iNPH): 15% (2×) and 204% and 40% and 159% and 131% and 98% and 2 (2%) and 126% and 110% and 70% and 22% and 23% | Max Increase in SU of T1 signal, numerical change [8]: 68 SU and 5 (5%) SU and 24 SU and 13 SU and 23 SU and 37 SU and 18 SU | Max Increase in SU of T1 signal, percentage change [8]: 80% and 5 (5%) and 27% and 14% and 25% and 41% and 21% | Max Increase in SU of T1 signal, numerical change [9]: 70 SU and 56 SU and 32 SU and 51 SU and 74 SU and 21 SU and 24 SU and 36 SU and 59 SU and 10 SU (2×) and −1 (−1%) SU and 25 SU | Max Increase in SU of T1 signal, percentage change [9]: 83% and 68% (2×) and 38% and 63% and 95% and 23% and 31% and 46% and 12% and −1 (−1%) and 11% and 28% | Max Increase in SU of T1 signal, numerical change (Precentral gyrus, REF): 10 SU and 1 (1%) SU and 8 SU and 2 (2%) SU and 6 SU and 34 SU and 3 SU | Max Increase in SU of T1 signal, percentage change (Precentral gyrus, REF): 12% and 1 (1%) and 9% and 2 (2%) and 7% and 41% and 4% | Max Increase in SU of T1 signal, numerical change (Precentral gyrus, iNPH): 28 SU and 7 SU and 7 (7%) SU and 2 (2%) SU (2×) and 18 SU and 5 (5%) SU and 8 SU and 2 SU and 6 SU (2×) and 4 SU and 3 SU | Max Increase in SU of T1 signal, percentage change (Precentral gyrus, iNPH): 32% and 8% and 7 (7%) and 2 (2%) (2×) and 22% and 5 (5%) and 10% and 3% and 7% (2×) and 5% and 4% | Max Increase in SU of T1 signal, numerical change (Thalamus, REF): 23 SU and 4 (4%) SU and 3 SU and 2 (2%) SU and 13 (13%) SU (2×) and 8 SU | Max Increase in SU of T1 signal, percentage change (Thalamus, REF): 26% and 4 (4%) and 2% and 2 (2%) and 13 (13%) (2×) and 9% | Max Increase in SU of T1 signal, numerical change (Thalamus, iNPH): 16 SU and 23 SU and 9 SU (2×) and 14 SU and 25 SU and 4 (4%) SU and 10 SU and 19 SU and 7 SU and 2 (2%) SU and 12 SU (2×) | Max Increase in SU of T1 signal, percentage change (Thalamus, iNPH): 18% and 24% and 11% (2×) and 17% and 28% and 4 (4%) and 12% and 21% and 8% and 2 (2%) and 14% and 13% | Max Increase in SU of T1 signal, numerical change (brain tissue Pons, REF): 20 SU and 5 (5%) SU (2×) and 3 (3%) SU and 9 (9%) SU and 7 (7%) SU and 9 SU | Max Increase in SU of T1 signal, percentage change (brain tissue Pons, REF): 21% and 5 (5%) (2×) and 3 (3%) and 9 (9%) and 7 (7%) and 10% | Max Increase in SU of T1 signal, numerical change (brain tissue Pons, iNPH): 17 (17%) SU and 24 (24%) SU and 15 SU and 21 SU and 14 (14%) SU and 4 (4%) SU (2×) and 9 SU (2×) and 18 (18%) SU and 3 (3%) SU and 2 (2%) SU and 6 (6%) SU | Max Increase in SU of T1 signal, percentage change (brain tissue Pons, iNPH): 17 (17%) and 24 (24%) and 16% and 24% and 14 (14%) and 4 (4%) (2×) and 10% (2×) and 18 (18%) and 3 (3%) and 2 (2%) and 6 (6%) | SU within ROI (entorhinal cortex, FIG. 16h, intrathecal gadobutrol present for 24 hours (46 SU without)): 136 SU | Average indication signal within brain tissue ROI (3 hours after intrathecal gadobutrol (80 SU without gadobutrol)): 83 SU | Average indication signal within brain tissue ROI (9 hours after intrathecal gadobutrol): 103 SU | Average indication signal within brain tissue ROI (24 hours after intrathecal gadobutrol): 107 SU | SU within ROI (subcortical area of entorhinal cortex, FIG. 16f, intrathecal gadobutrol present for 24 hours (109 SU without)): 180 SU
